Data set [1] is described as follows: Cytotoxicity against MDCK cells assessed as reduction in cell viability incubated for 72 hrs by MTT assay. The data set is classed as toxicity, cell-based, Canis lupus familiaris. The conditions noted are these: dog.
The test system of data set [2] is Influenza A virus. The experiment in a line: Antiviral activity against influenza A virus A/Pert/16/09(H3N2) infected in MDCK cells assessed as reduction in viral titer by agglutination assay. Format: functional, organism-based.
Data set [3] concerns Influenza A virus. The experiment in a line: Antiviral activity against influenza A virus A/California/07/09(H1N1)pdm09 infected in MDCK cells assessed as reduction in viral titer by agglutination assay. Format: functional, organism-based. The following applies: A/California/07/09(H1N1)pdm09, MDCK.
Data set [4] deals with Influenza A virus. The experiment in a line: Antiviral activity against Influenza A virus A/Aichi/2/68(H3N2) infected in MDCK cells assessed as inhibition of virus-induced cytopathicity. The data set is classed as functional, organism-based. Background: Cytopathic effects are the visible damage that an infection or toxin causes in cultured cells.
Data set [5] can be described thus: Cytotoxicity against MDCK cells assessed as reduction in cell viability incubated for 48 hrs. Format: toxicity, cell-based, Canis lupus familiaris. The following applies: dog.
Data set [6] relates to Influenza A virus. The experiment in a line: Antiviral activity against influenza A virus H1N1/pdm09 infected in MDCK cells assessed as reduction in viral titer preincubated with compound for 1 hr followed by virus infection incubated for 48 hrs followed by addition of chicken erythrocytes measured after 40 mins by hemagglutination assay. The data set is classed as functional, organism-based.

The nature of data set [7]: Cytotoxicity against MDCK cells assessed as reduction in cell viability incubated for 48 hrs by MTT assay. Format: toxicity, cell-based, Canis lupus familiaris. The conditions noted are these: dog.
In data set [8] the test system is Influenza A virus. The experiment in a line: Antiviral activity against influenza A virus A/WSN/33(H1N1) infected in BALB/c mouse assessed as log reduction in viral load in lungs at 5 mg/kg administered intranasally for 5 days. Format: functional. The conditions noted are these: route nas, time 5 day.
The test system of data set [9] is Influenza A virus. The experiment in a line: Antiviral activity against influenza A virus A/NIBRG/14/H5N1 infected in MDCK cells assessed as reduction in viral titer by agglutination assay. Format: functional, organism-based. The conditions noted are these: A/NIBRG/14/H5N1, MDCK.
Another data set concerns Influenza B virus. The experiment in a line: Antiviral activity against influenza B virus B/Brisben/60/08 infected in MDCK cells assessed as reduction in viral titer by agglutination assay. The data set is classed as functional, organism-based. The conditions noted are these: B/Brisben/60/08, MDCK.
Data set [10] in a line: Cytotoxicity against MDCK cells assessed as reduction in cell viability incubated for 48 hrs by CellTiter-Glo assay. Format: toxicity, cell-based, Canis lupus familiaris. The conditions noted are these: dog. (In general: In ATP-based viability assays light output follows the ATP content of the culture.)
In data set [11] the test system is Influenza A virus. The experiment in a line: Antiviral activity against Influenza A virus A/WSN/33(H1N1) infected in MDCK cells assessed as inhibition of virus-induced cytopathic effect incubated for 48 hrs by CellTiter-Glo assay. The data set is classed as functional, organism-based.
Data set [12] is described as follows: Water solubility of the compound. The data set is classed as physicochemical.
The nature of data set [13]: Oral bioavailability in rat. The following applies: in vivo. Format: ADME, organism-based.
Data set [14] in a line: Water solubility of the compound by shake flask method. Format: physicochemical. The following applies: buffer.

This is an account of results in ChEMBL document CHEMBL5331069, “Potential of glycyrrhizic and glycyrrhetinic acids against influenza type A and B viruses: A perspective to develop new anti-influenza compounds and drug delivery systems” (Eur J Med Chem, 2023).

By CC50 is commonly meant the concentration giving 50% cytotoxicity. The term EC50 denotes the midpoint of the concentration-response curve. For orientation: IC50 means the concentration needed to halve the response being measured. The term solubility denotes the dissolved amount per volume that the medium holds. A higher solubility goes with a readily soluble substance. What is called bioavailability is the share of a dose that reaches the circulation, judged against a reference dose that is usually intravenous. Read a high bioavailability as good availability.

≈ marks a conversion by molar mass, not a printed value. A value given as a limit tells only on which side of the number the result lay.

As for `COC(=O)C(Cc1c[nH]c2ccccc12)NC(=O)[C@H]1O[C@@H](O[C@H]2[C@H](O[C@H]3CC[C@]4(C)[C@H]5C(=O)C=C6[C@@H]7C[C@@](C)(C(=O)NC(Cc8c[nH]c9ccccc89)C(=O)OC)CC[C@]7(C)CC[C@@]6(C)[C@]5(C)CC[C@H]4C3(C)C)O[C@H](C(=O)NC(Cc3c[nH]c4ccccc34)C(=O)OC)[C@@H](O)[C@@H]2O)[C@H](O)[C@@H](O)[C@@H]1O` (stereo partly drawn), the 50% cytotoxic concentration (CC50) at 72 h in data set [1] was 620 µg/mL (≈ 435 µM). The concentration giving a half-maximal response (EC50) in the data set with Influenza A virus [2] was determined as 74.4 µg/mL (≈ 52.3 µM); with Influenza A virus [3], 20.7 µg/mL (≈ 14.5 µM).
Take `COC(=O)[C@H]1O[C@@H](SCCN(C(C)=O)[C@H]2CC[C@]3(C)[C@H]4C(=O)C=C5[C@@H]6C[C@@](C)(C(=O)O)CC[C@]6(C)CC[C@@]5(C)[C@]4(C)CC[C@H]3C2(C)C)[C@H](O)[C@@H](O)[C@@H]1O`: the half-inhibitory concentration (IC50) in the data set with Influenza A virus [4] was 72.1 µg/mL (≈ 94.6 µM). Further, the CC50 at 48 h in data set [5] is greater than 75 µg/mL.
For `CC(=O)N(CCS[C@@H]1O[C@H](C(=O)O)[C@@H](O)[C@H](O)[C@H]1O)[C@H]1CC[C@]2(C)[C@H]3C(=O)C=C4[C@@H]5C[C@@](C)(C(=O)O)CC[C@]5(C)CC[C@@]4(C)[C@]3(C)CC[C@H]2C1(C)C`, in that order: 87 µg/mL (≈ 116 µM) and greater than 250 µg/mL.
Turning to `COC(=O)CCCCCNC(=O)[C@H]1O[C@@H](O[C@H]2[C@H](O[C@H]3CC[C@]4(C)[C@H]5C(=O)C=C6[C@@H]7C[C@@](C)(C(=O)O)CC[C@]7(C)CC[C@@]6(C)[C@]5(C)CC[C@H]4C3(C)C)O[C@H](C(=O)NCCCCCC(=O)OC)[C@@H](O)[C@@H]2O)[C@H](O)[C@@H](O)[C@@H]1O`, the EC50 in the data set with Influenza A virus [6] stood at 12.7 µg/mL (≈ 11.8 µM). Besides, the CC50 at 48 h in data set [7] is 408 µg/mL (≈ 379 µM).
Regarding `COC(=O)[C@@]1(C)CC[C@]2(C)CC[C@]3(C)[C@H](C(=O)C=C4[C@@]5(C)C=C(C#N)C(=O)C(C)(C)[C@@H]5CC[C@]43C)[C@@H]2C1`, in the data set on Influenza A virus [8], the “log(activity)” value came out at 2.3.
Regarding `CCOC(=O)C(Cc1c[nH]c2ccccc12)NC(=O)[C@H]1O[C@@H](O[C@H]2[C@H](O[C@H]3CC[C@]4(C)[C@H]5C(=O)C=C6[C@@H]7C[C@@](C)(C(=O)NC(Cc8c[nH]c9ccccc89)C(=O)OCC)CC[C@]7(C)CC[C@@]6(C)[C@]5(C)CC[C@H]4C3(C)C)O[C@H](C(=O)NC(Cc3c[nH]c4ccccc34)C(=O)OCC)[C@@H](O)[C@@H]2O)[C@H](O)[C@@H](O)[C@@H]1O` (stereo partly drawn), the 50% cytotoxic concentration (CC50) at 72 h in [1] is greater than 500 µg/mL. Besides, the EC50 in the data set on Influenza A virus [2] came to 33 µg/mL (≈ 22.5 µM); in the data set on Influenza A virus [3] it was 44.5 µg/mL (≈ 30.4 µM); in the data set on Influenza A virus [9], 17.5 µg/mL (≈ 11.9 µM); in the data set with Influenza B virus, 50 µg/mL (≈ 34.1 µM).
For `CC(=O)O[C@@H]1[C@@H](OC(C)=O)[C@H]2O[C@H]3[C@H](OC(C)=O)[C@@H](OC(C)=O)[C@@H](O[C@H]4[C@H](OC(C)=O)[C@@H](OC(C)=O)[C@@H](O[C@H]5[C@H](OC(C)=O)[C@@H](OC(C)=O)[C@@H](O[C@H]6[C@H](OC(C)=O)[C@@H](OC(C)=O)[C@@H](O[C@H]7[C@H](OC(C)=O)[C@@H](OC(C)=O)[C@@H](O[C@H]8[C@H](OC(C)=O)[C@@H](OC(C)=O)[C@@H](O[C@@H]1[C@@H](Cn1cc(CN9CCN(CCNC(=O)[C@@]%10(C)CC[C@]%11(C)CC[C@]%12(C)C(=CC(=O)[C@@H]%13[C@@]%14(C)CC[C@H](O)C(C)(C)[C@@H]%14CC[C@]%13%12C)[C@@H]%11C%10)CC9)nn1)O2)O[C@@H]8Cn1cc(CN2CCN(CCNC(=O)[C@@]8(C)CC[C@]9(C)CC[C@]%10(C)C(=CC(=O)[C@@H]%11[C@@]%12(C)CC[C@H](O)C(C)(C)[C@@H]%12CC[C@]%11%10C)[C@@H]9C8)CC2)nn1)O[C@@H]7Cn1cc(CN2CCN(CCNC(=O)[C@@]7(C)CC[C@]8(C)CC[C@]9(C)C(=CC(=O)[C@@H]%10[C@@]%11(C)CC[C@H](O)C(C)(C)[C@@H]%11CC[C@]%109C)[C@@H]8C7)CC2)nn1)O[C@@H]6Cn1cc(CN2CCN(CCNC(=O)[C@@]6(C)CC[C@]7(C)CC[C@]8(C)C(=CC(=O)[C@@H]9[C@@]%10(C)CC[C@H](O)C(C)(C)[C@@H]%10CC[C@]98C)[C@@H]7C6)CC2)nn1)O[C@@H]5Cn1cc(CN2CCN(CCNC(=O)[C@@]5(C)CC[C@]6(C)CC[C@]7(C)C(=CC(=O)[C@@H]8[C@@]9(C)CC[C@H](O)C(C)(C)[C@@H]9CC[C@]87C)[C@@H]6C5)CC2)nn1)O[C@@H]4Cn1cc(CN2CCN(CCNC(=O)[C@@]4(C)CC[C@]5(C)CC[C@]6(C)C(=CC(=O)[C@@H]7[C@@]8(C)CC[C@H](O)C(C)(C)[C@@H]8CC[C@]76C)[C@@H]5C4)CC2)nn1)O[C@@H]3Cn1cc(CN2CCN(CCNC(=O)[C@@]3(C)CC[C@]4(C)CC[C@]5(C)C(=CC(=O)[C@@H]6[C@@]7(C)CC[C@H](O)C(C)(C)[C@@H]7CC[C@]65C)[C@@H]4C3)CC2)nn1`, in data set [10], the CC50 at 48 h was greater than 100 µM. In addition, the IC50 with Influenza A virus [11] came to 2.86 µM.
Take `CC1(C)[C@@H](O)CC[C@]2(C)[C@H]3C(=O)C=C4[C@@H]5C[C@@](C)(C(=O)O)CC[C@]5(C)CC[C@@]4(C)[C@]3(C)CC[C@@H]12` [ENOXOLONE]: the CC50 at 48 h in data set [5] is 7.4 µg/mL (≈ 15.7 µM). This molecule also registered a solubility in [12] of less than 10 µg/mL.
Turning to `CC1(C)[C@@H](SCCS[C@@H]2O[C@H](C(=O)O)[C@@H](O)[C@H](O)[C@H]2O)CC[C@]2(C)[C@H]3C(=O)C=C4[C@@H]5C[C@@](C)(C(=O)O)CC[C@]5(C)CC[C@@]4(C)[C@]3(C)CC[C@@H]12`, the IC50 in the data set with Influenza A virus [4] was 54 µg/mL (≈ 74.7 µM). The CC50 at 48 h in data set [5] was greater than 250 µg/mL.
With `O=c1cc(-c2ccccc2)oc2cc(O)c(O)c(O)c12` [BAICALEIN], the bioavailability in data set [13] is 2.2%. The molecule also came in with a solubility in [14] of 0.15 µg/mL (≈ 0.555 µM).
